Reference: article PMC7617456, “Cryptosporidium lysyl-tRNA synthetase inhibitors define the interplay between solubility and permeability required to achieve efficacy” (Science translational medicine, 2024)
“Also recorded” adds a separate entry of the source. Read-outs that look alike come from different tables or passages of the source.

How the values were obtained:
wild type C. parvum = test: NOD SCID Gamma mouse efficacy model; assay type: in vivo; conditions: for parasite shedding once treatment finished (day 14 PI) / recrudescence (day 21 PI): 10 mg/kg BID oral 7 days; for log reduction in parasite shedding / parasite reduction: 10 mg/kg twice a day oral 7 days; for minimum efficacious dose (MED): BID oral 7 days, reduces parasite burden and prevents recrudescence
Experimental: An immunocompromised mouse model of cryptosporidiosis (Fig. 1C) was selected to examine the effect of each of the fourteen tool compounds on parasite reduction in vivo. […] Treatment started on day 7 post infection (PI) and concluded on day 13 PI. Infection was determined by measuring the number of parasites shed in the fecal material by quantitative PCR (oocysts/g). Efficacy was determined by calculating the log reduction in the number of oocysts shed by treated animals after completion of compound dosing (day 14) relative to the initial parasite burden in the same group of animals before treatment began (day 7 PI). Hypothesized compound absorption by BCS class is illustrated in Fig. S3. […] No Class I or Class IV compound achieved a log reduction above 2.0 (99% parasite reduction).
Efficacy of tool compounds in the NOD SCID Gamma mouse model was assessed as previously described.([14]) Male mice aged 3-5 weeks old were used, 4 mice per group (NOD.Cg-Prkdc^scid Il2rgtm1Wjl/SzJ; purchased from Jackson Labs). Mice were infected via gavage (100,000 wild type Iowa strain C. parvum oocysts from Bunchgrass Farms). Compounds were prepared fresh daily in HPMC with DMSO (0.5% hydroxypropylmethylcellulose, 0.4% Tween 80 and 0.5% Benzyl alcohol (v/v) plus 5% DMSO) and were administered by oral gavage at the concentration indicated starting 7 days post infection. Paromomycin served as the positive control (administered at 2000 mg/kg). Fecal samples were collected on days indicated. Oocyst shedding in feces was measured using a previously validated qPCR assay.([28])

[1] = tested on: transgenic C. parvum that express NanoLuciferase; test: IFN-Gamma KO mouse acute efficacy model; assay type: in vivo; conditions: DDD489, DDD508 50 mg/kg BID; DDD706 20 mg/kg QD; oral 7 days from day 6 PI
Experimental: First, compounds were tested in the acute cryptosporidiosis mouse model, IFN-Gamma KO.([16]) In this model, infection peaks at approximately 10-12 days PI, and resolves within a month. Mice were infected with a strain of transgenic C. parvum that expresses NanoLuciferase (NLuc).([12]) Mice were treated orally for 7 days starting on day 6 PI (Fig. 4A) and a NanoLuciferase assay was used to determine parasite shedding in feces (RLUs/g). Control mice received either vehicle (Fig. 4B, white) or positive control, DDD706 (Fig. 4B, black; NLuc parasites are genetically engineered to be resistant to paromomycin, so DDD706 serves as the positive control) at 20 mg/kg QD; DDD489 and DDD508 were tested at 50 mg/kg BID.
Male IFN-Gamma knockout mice (B6.129S7-Ifng^tmlTS/J, JAX 002287; purchased from Jackson Labs and bred at the University of Dundee) aged 30 weeks old were used, (n = 5 mice per experimental group). Mice were infected by oral gavage (100 oocysts of Δtk::mNeon-Neo^R as described previously([12])). Compounds were prepared in HMPC without DMSO and administered by oral gavage at 50 mg/kg starting day 6 PI. Early lead compound DDD706 served as the positive control (administered at 20 mg/kg QD). Fecal samples were pooled from all mice in the cage on days indicated. Oocyst shedding in feces was determined by NanoLuciferase assay (20 mg of fecal material was homogenized in 1 ml of lysis buffer and assayed for NLuc activity as previously described).([12])

Rat pharmacokinetics = assay type: in vivo; conditions: for half-life / Vd / AUC / Cmax / Tmax / bioavailability: male, Hans Wistar, whole blood; for half-life / Vd: 3 mg/kg, rat, IV; for half-life: read-out: T½ (converted); for Vd: read-out: Vdss; for bioavailability: read-out: F (oral bioavailability); for CLB: rat IV, clearance in blood
Experimental: Rat pharmacokinetics (Dundee)
As for mice except using male Hans Wistar rats (IV dose volume 1 mL/kg; PO dose volume: […]
Pharmacokinetic parameters were
derived from the blood concentration-time curve using WinNonLin Professional Software v
6.3 (Pharsight Corporation). […]

KRS-OE = test: Transgenic C. parvum NanoLuciferase drug sensitivity assay, KRS-OE; assay type: cell-based; conditions: Cryptosporidium parvum, HCT-8, 48 h, read-out: EC50, KRS-OE
KRS-A309L = test: Transgenic C. parvum NanoLuciferase drug sensitivity assay, KRS-A309L; assay type: cell-based; conditions: Cryptosporidium parvum, HCT-8, 48 h, read-out: EC50, KRS-A309L
P-gp (MDR1) = test: in vitro; conditions: dog, MDCK-MDR1
[2] = Hepatocyte intrinsic clearance, human; assay type: in vitro ADME; conditions: human hepatocytes
[3] = Plasma protein binding, mouse; assay type: in vitro ADME; conditions: mouse PPB assay, read-out: fraction unbound (fu)
CYP450 2D6 = CYP450 2D6 (Homo sapiens, UniProt P10635); test: CYP450 inhibition 2D6; assay type: in vitro ADME
Experimental: CYP450 inhibition (Dundee)
As previously described.(31)
DDD489 and DDD508 were evaluated for their ability to induce reverse mutations both in the presence and absence of S9 mix at the histidine locus in the genome of four strains of Salmonella typhimurium (TA98, TA100, TA1535, and TA97a) and at the tryptophan locus in the genome of Escherichia coli WP2 uvrA in a mini-Ames study conducted at WuXi App Tec […]
hERG inhibition (WuXi App Tec)
DDD489 and DDD508 were evaluated for their effects on cloned hERG potassium channels stably expressed in Chinese Hamster Ovary (CHO) cells using manual patch-clamp technique in a hERG inhibition assay conducted at WuXi App Tec (Suzhou).
Mitochondrial toxicity (Cyprotex)
DDD489 and DDD508 were evaluated for their effects on mitochondrial function in a functional mitochondrial toxicity assay using Seahorse XFe96 flux analyser conducted at […]
44 screen safety panel (Eurofins)
DDD489 was evaluated for off-target effects in a SafetyScreen44 panel at Eurofins Cerep.
All regulated procedures, at the University of Dundee, on living animals were carried out under the authority of a project license issued by the Home Office under the Animals (Scientific Procedures) Act 1986, as amended in 2012 (and in compliance with EU Directive EU/2010/63). […]

mitochondrial function = test: Functional mitochondrial toxicity assay (Seahorse XFe96); assay type: cell-based
CpKRS = CpKRS (Cryptosporidium parvum, UniProt Q5CR27); test: CpKRS in vitro enzyme assay
Experimental: CpKRS in vitro enzyme assay (Dundee)
Potency of compounds was determined in 10-point dose-response inhibition curves.
Echo 550 acoustic dispenser (Labcyte). KRS reactions were started by adding enzyme into wells containing substrate and compounds using a Thermo Scientiﬁ c Matrix Wellmate. KRS assays were run in 50 µL reactions (Final concentration: 100 mM HEPES*K pH 7.4, 20 mM
Pyrophosphatase) at room temperature for 7 h. Reactions were stopped by the addition of Biomol green (50 µL: Enzo Life Sciences) with the amount of free phosphate detected by
Samples were all run in duplicate and data was processed and analyzed using ActivityBase

[4] = rat IV (DDD489 2.8, DDD508 3.47 mg/kg)
[5] = read-out: Oxygen consumption AC50

Sequence of CpKRS (Q5CR27 entry or part of it): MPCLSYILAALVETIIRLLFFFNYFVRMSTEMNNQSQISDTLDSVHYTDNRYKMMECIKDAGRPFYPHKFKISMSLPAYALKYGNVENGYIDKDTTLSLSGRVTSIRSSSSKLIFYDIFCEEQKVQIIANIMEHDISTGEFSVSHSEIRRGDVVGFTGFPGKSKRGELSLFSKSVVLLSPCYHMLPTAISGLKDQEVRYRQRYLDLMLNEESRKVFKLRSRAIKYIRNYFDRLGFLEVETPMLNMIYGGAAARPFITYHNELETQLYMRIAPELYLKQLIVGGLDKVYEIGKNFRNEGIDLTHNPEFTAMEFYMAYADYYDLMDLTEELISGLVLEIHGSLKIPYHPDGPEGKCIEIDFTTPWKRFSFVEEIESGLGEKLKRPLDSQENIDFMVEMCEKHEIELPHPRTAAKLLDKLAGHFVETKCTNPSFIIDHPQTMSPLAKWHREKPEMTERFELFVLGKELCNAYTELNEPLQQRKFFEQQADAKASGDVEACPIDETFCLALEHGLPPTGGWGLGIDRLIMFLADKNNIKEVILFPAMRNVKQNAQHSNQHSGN
Sequence of CYP450 2D6 (P10635 whole entry): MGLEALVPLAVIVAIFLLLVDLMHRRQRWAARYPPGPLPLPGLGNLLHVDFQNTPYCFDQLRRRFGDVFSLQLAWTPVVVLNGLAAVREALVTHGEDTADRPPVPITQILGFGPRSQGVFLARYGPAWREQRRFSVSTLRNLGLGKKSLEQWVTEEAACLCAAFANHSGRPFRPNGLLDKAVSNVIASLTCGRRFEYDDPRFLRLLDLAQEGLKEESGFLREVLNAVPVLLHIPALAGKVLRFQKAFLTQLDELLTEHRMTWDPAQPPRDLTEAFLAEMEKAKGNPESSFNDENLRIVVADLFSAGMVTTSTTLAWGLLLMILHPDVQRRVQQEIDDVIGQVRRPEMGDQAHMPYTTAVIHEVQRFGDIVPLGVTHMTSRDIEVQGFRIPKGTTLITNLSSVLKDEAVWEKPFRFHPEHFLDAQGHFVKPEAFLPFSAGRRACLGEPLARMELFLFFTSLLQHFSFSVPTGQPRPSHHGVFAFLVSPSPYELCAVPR

Row | SMILES | parasite shedding once treatment finished (day 14 PI) (wild type C. parvum) | recrudescence (day 21 PI) (wild type C. parvum) | log reduction in parasite shedding (wild type C. parvum) | parasite reduction (wild type C. parvum) | minimum efficacious dose (MED) (wild type C. parvum) | parasite shedding during treatment period [1] | recrudescence [1] | half-life (Rat pharmacokinetics) | Vd (Rat pharmacokinetics) | AUC (Rat pharmacokinetics; [4]) | AUC (Rat pharmacokinetics; rat PO 10 mg/kg) | Cmax (Rat pharmacokinetics; rat PO 10 mg/kg) | Tmax (Rat pharmacokinetics; rat PO 10 mg/kg) | bioavailability (Rat pharmacokinetics; rat PO 10 mg/kg) | CLB (Rat pharmacokinetics) | EC50 (KRS-OE) | EC50 (KRS-A309L) | efflux ratio (P-gp (MDR1)) | Heps CLi (h) [2] | fraction unbound [3] | also measured
1 | Nc1nc2c(c(C(F)(F)F)n1)C(=O)N(CC1CCCC(C(F)(F)F)C1)C2 (stereo not drawn) [DDD489] | reduces parasite shedding to the level of detection | unable to prevent recrudescence; also recorded: does not prevent recrudescence | > 2.8 log | > 99.8% | 30 mg/kg | reduced parasite shedding below the LOQ | able to prevent parasite recrudescence | 1.2 h | 3.2 L/kg | 1200 ng·h/mL | 137 ng·h/mL | 30 ng/mL | 2 h | 3.2% | 39 mL/min/kg | 0.978 µM | 8.63 µM | 1.3 | 1.1 mL/min/g | 0.16 | recrudescence at day 21 PI (wild type C. parvum; 50 mg/kg BID oral 7 days): prevents; IC50 (CYP450 2D6): 8 µM; Extracellular acidification rate AC50 (mitochondrial function): No response; Reserve capacity AC50 (mitochondrial function): No response; AC50 (mitochondrial function; [5]): > 100 µM; IC50 (CpKRS): 0.85 µM
2 | O=C(NCC1(O)CCCCC1)c1cc(=O)c2cc(O)ccc2o1 [DDD508] | parasite shedding to the level of detection | unable to prevent recrudescence | > 2.8 log | > 99.8% | 30 mg/kg | reduced parasite shedding below the limit of quantitation (LOQ) | unable to prevent recrudescence | 0.6 h | 2.1 L/kg | 900 ng·h/mL | 367 ng·h/mL | 100 ng/mL | 1 h | 14% | 64 mL/min/kg | > 1 µM | 9.93 µM | 9.5 | < 0.5 mL/min/g | 0.6 | IC50 (CYP450 2D6): > 100 µM; Extracellular acidification rate AC50 (mitochondrial function): No response; AC50 (mitochondrial function; [5]): > 100 µM; AC50 (mitochondrial function; read-out: Reserve capacity AC50): > 100 µM; IC50 (CpKRS): 1.7 µM
